Results from patent publication US20150175655A1 (priority 2012, published 2015).

Target: T1, NS3 genotype 3a protease (UniProt Q81258)
T1 construct: Purified NS3 protease domain (amino acids 1-181) of the genotype 1b and 3a virus were generated as above; fused on or other part: N-terminal hexahistidine tag and rTEV protease cleavage site (vector p28-N6H-Tev-NS3(181)3)
T1 sequence (Q81258 1033-1663): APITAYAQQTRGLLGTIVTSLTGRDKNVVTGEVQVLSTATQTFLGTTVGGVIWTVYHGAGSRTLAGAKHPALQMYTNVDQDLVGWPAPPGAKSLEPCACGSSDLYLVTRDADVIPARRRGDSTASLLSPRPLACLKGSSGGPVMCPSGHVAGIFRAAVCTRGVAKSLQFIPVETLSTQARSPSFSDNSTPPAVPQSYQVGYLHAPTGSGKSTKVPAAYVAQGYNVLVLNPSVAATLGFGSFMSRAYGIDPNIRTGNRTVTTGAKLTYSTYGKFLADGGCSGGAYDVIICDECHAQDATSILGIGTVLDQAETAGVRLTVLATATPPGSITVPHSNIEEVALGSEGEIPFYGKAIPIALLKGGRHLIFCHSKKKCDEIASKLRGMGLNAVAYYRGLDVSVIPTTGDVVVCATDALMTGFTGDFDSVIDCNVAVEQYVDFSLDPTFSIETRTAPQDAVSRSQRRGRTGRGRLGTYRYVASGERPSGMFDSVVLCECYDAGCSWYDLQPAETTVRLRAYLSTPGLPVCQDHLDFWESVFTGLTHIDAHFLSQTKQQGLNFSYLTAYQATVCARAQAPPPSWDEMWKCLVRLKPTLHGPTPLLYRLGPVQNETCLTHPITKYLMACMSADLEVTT
Assay: Ki determination, NS3 protease genotype 3a (fluorogenic depsipeptide substrate)
Assay type: biochemical, hepatitis C virus
Conditions: 200 pM enzyme, 20 μM NS4A peptide, 2 μM substrate, read-out: Ki 3A
Text: The coding sequences for the genotype 3 HCV protease domain was amplified by RT-PCR using a Titan One Tube RT-PCR Kit (Roche, Indianapolis, Ind.) and RNA extracted from HCV-positive human serum (BBI Diagnostics, MA) using a QIAmp UltraSens Virus Kit (Qiagen, Valencia, Calif.). 5′ PCR primers were designed to encode N-terminal hexahistidine tags and to insert in-frame rTEV protease cleavage sites into the NS3 protease coding sequences. The resulting DNA fragments were cloned into pET28 yielding the expression vectors p28-N6H-Tev-NS3(181)1a and p28-N6H-Tev-NS3(181)3, respectively.
BL21AI bacteria (Invitrogen, Carlsbad, Calif.) were transformed with genotype 1b or 3 NS3 expression vectors and used to inoculate a 20 L fermentation vessel (Sartorius BBI System Inc., Bethlehem, Pa.), containing 18 L of fresh 2YT medium supplemented with 50 μg/mL kanamycin. When cell densities reached an OD600 of 1, the temperature of the cultures was reduced from 37° C. to 28° C. and induction was immediately initiated by the addition of 30 μM ZnSO4, 14 mM L-arabinose and 1 mM Isopropyl β-D-thiogalactoside (IPTG) final concentrations. Cells were harvested by centrifugation four hours post-induction and were stored as frozen pellets at −80° C. prior to NS3 protein purification.
Bacterial pellets collected from the expression of genotype 3 HCV NS3 protease were homogenized in Lysis Buffer (25 mM tris, pH 7.5 buffer containing 150 mM NaCl and 1 mM phenylmethanesulfonyl fluoride (PMSF)) and passed through a microfluidizer at 18,000 pounds/in^2. Homogenized cell lysates were centrifuged at 30,000×g for 30 minutes at 4° C. The resulting P1 pellets were washed with Wash Buffer I (25 mM tris, pH 7.5 containing 1% CHAPS) followed by centrifugation at 10,000×g for 30 minutes at 4° C. […] The resulting P3 pellets were resuspended in Solubilization Buffer (20 ml of 25 mM tris, pH 7.5 containing 150 mM NaCl and 8 M urea) and incubated at 4° C. for one hour. Solubilized proteins were passed through a 0.45 micron filter. Protein concentrations were measured and the solutions were adjusted to 40 mM DTT, incubated for 30 minutes at 4° C. and then quickly diluted into Refolding Buffer (25 mM tris, pH 8.5, 0.8 M Guanidine-HCl, 0.4 M L-Arginine, 10 mM ZnSO4) while stirring. Protein solutions were incubated at 4° C. overnight to allow refolding. Refolded proteases were centrifuged at 30,000×g for 10 minutes to remove residual precipitates. Final protein concentrations were then measured and the NS3 proteases were aliquoted, snap frozen in liquid nitrogen and stored at −80° C.
Purified NS3 protease domain (amino acids 1-181) of the genotype 1b and 3a virus were generated as above. The internally quenched fluorogenic depsipeptide substrate Ac-DED(Edans)-EEAbuψ[COO]ASK(Dabcyl)-NH2 and a synthetic peptide containing the hydrophobic core residues of the NS4A protein cofactor ([…]; NS4A peptide) were obtained from Anaspec, Inc. (San Jose, Calif.). Other chemicals and biochemicals were of reagent grade or better and were purchased from standard suppliers.
Reactions were run at room temperature in buffer consisting of 50 mM HEPES, 40% glycerol, 0.05% Triton X-100, 10 mM DTT, and 10% DMSO. The final assay solutions contained 50 pM NS3 genotype 1b protease or 200 pM genotype 3a protease, 20 μM NS4A peptide, and 4 μM substrate (genotype 1 b) or 2 μM substrate (genotype 3a). Inhibitor concentrations varied from 100 nM to 5 pM in 3-fold dilutions, and no-inhibitor controls were included.
Compound dilutions were made in DMSO at 20× final concentration. Reaction mixtures were prepared in 96-well assay plates. A solution of enzyme and NS4A peptide in assay buffer (25 μL volume with both reagents at 4× final concentration) was mixed with 45 μL assay buffer and 5 μL of either inhibitor or DMSO, and pre-incubated at room temperature for 1 hour. The reaction was started by addition of 25 μL substrate solution at 4× final concentration. […]

First: CC[C@@H]1[C@@H]2CN(C(=O)[C@H](C(C)(C)C)NC(=O)O[C@]3(C)CCC[C@H]3CCCCCc3nc4ccc(OC)cc4nc3O2)[C@@H]1C(=O)N[C@]1(C(=O)NS(=O)(=O)C2(C)CC2)C[C@H]1CCF [Example 52, (3aR,7S,10S,11S,12R,24aR)-7-tert-butyl-11-ethyl-N-[(1R,2S)-2-(2-fluoroethyl)-1-{[(1-methylcyclopropyl)sulfonyl]carbamoyl}cyclopropyl]-16-methoxy-3a-methyl-5,8-dioxo-1,2,3,3a,5,6,7,8,11,12,20,21,22,23,24,24a-hexadecahydro-10H-9,12-methanocyclopenta[18,19][1,10,3,6]dioxadiazacyclononadecino[11,12-b]quinoxaline-10-carboxamide]
Second: CC[C@@H]1[C@@H]2CN(C(=O)[C@H](C(C)(C)C)NC(=O)O[C@]3(C)CCC[C@H]3CCCCCc3nc4ccc(OC)cc4nc3O2)[C@@H]1C(=O)N[C@]1(C(=O)NS(=O)(=O)C2CC2)C[C@H]1C(F)F [Example 40, (3aR,7S,10S,11S,12R,24aR)-7-tert-butyl-N-[(1R,2R)-1-[(cyclopropylsulfonyl)carbamoyl]-2-(difluoromethyl)cyclopropyl]-11-ethyl-16-methoxy-3a-methyl-5,8-dioxo-1,2,3,3a,5,6,7,8,11,12,20,21,22,23,24,24a-hexadecahydro-10H-9,12-methanocyclopenta[18,19][1,10,3,6]dioxadiazacyclononadecino[11,12-b]quinoxaline-10-carboxamide]
The Ki of the first is 7.2-fold higher: 1.3 nM for the first, 0.18 nM for the second. The second binds more tightly here.

Compared with `CC[C@@H]1[C@@H]2CN(C(=O)[C@H](C(C)(C)C)NC(=O)O[C@@H]3C[C@@H]4C[C@@H]4[C@H]3CCCCC(F)(F)c3nc4ccc(OC)cc4nc3O2)[C@@H]1C(=O)N[C@]1(C(=O)NS(=O)(=O)C2(C)CC2)C[C@H]1C(F)F` [Example 61, (1aS,2aR,6S,9S,10S,11R,23aR,23bS)-6-tert-butyl-N-[(1R,2R)-2-(difluoromethyl)-1-{[(1-methylcyclopropyl)sulfonyl]carbamoyl}cyclopropyl]-10-ethyl-19,19-difluoro-15-methoxy-4,7-dioxo-1a,2,2a,4,5,6,7,10,11,19,20,21,22,23,23a,23b-hexadecahydro-1H,9H-8,11-methanocyclopropa[4′,5′]cyclopenta[1′,2′:18,19][1,10,3,6]dioxadiazacyclononade cino[11,12-b]quinoxaline-9-carboxamide], `CC[C@@H]1[C@@H]2CN(C(=O)[C@H](C(C)(C)C)NC(=O)O[C@@H]3C[C@H]3CCCCC(F)(F)c3nc4ccc(C#N)cc4nc3O2)[C@@H]1C(=O)N[C@]1(C(=O)NS(=O)(=O)C2(C)CC2)C[C@H]1C(F)F` [Example 87, (1aR,5S,8S,9S,10R,22aR)-5-tert-butyl-14-cyano-N-[(1R,2R)-2-(difluoromethyl)-1-{[(1-methylcyclopropyl)sulfonyl]carbamoyl}cyclopropyl]-9-ethyl-18,18-difluoro-3,6-dioxo-1,1a,3,4,5,6,9,10,18,19,20,21,22,22a-tetradecahydro-8H-7,10-methanocyclopropa[18,19][1,10,3,6]dioxadiazacyclononadecino[11,12-b]quinoxaline-8-carboxamide] is 1.8-fold lower in Ki: 0.09 nM for the first, 0.05 nM for the second. The second binds more tightly here.

Compound `CC[C@@H]1[C@@H]2CN(C(=O)[C@H](C(C)(C)C)NC(=O)O[C@@H]3[C@H]4CC[C@H](C4)[C@H]3CCCCCc3nc4ccc(OC)cc4nc3O2)[C@@H]1C(=O)N[C@]1(C(=O)NS(=O)(=O)C2(C)CC2)C[C@H]1C(F)F` [Example 37, (1R,4S,4aR,8S,11S,12S,13R,25aR)-8-tert-butyl-N-[(1R,2R)-2-(difluoromethyl)-1-{[(1-methylcyclopropyl)sulfonyl]carbamoyl}cyclopropyl]-12-ethyl-17-methoxy-6,9-dioxo-2,3,4,4a,6,7,8,9,12,13,21,22,23,24,25,25a-hexadecahydro-1H,11H-1,4:10,13-dimethanoquinoxalino[2,3-k][1,10,3,6]benzodioxadiazacyclononadecine-11-carboxamide] has a Ki of 0.19 nM.

Same assay, conditions: read-out: Ki 3A, 200 pM enzyme, 20 μM NS4A peptide, 2 μM substrate

Compared with `COc1ccc2nc3c(nc2c1)O[C@H]1CN(C(=O)[C@H](C(C)(C)C)NC(=O)O[C@@H]2C[C@H]2CCCCC3)[C@H](C(=O)N[C@]2(C(=O)NS(=O)(=O)C3(C)CC3)C[C@H]2CC(F)F)[C@@H]1C` [Example 25, (1aR,5S,8S,9S,10R,22aR)-5-tert-butyl-N-[(1R,2S)-2-(2,2-difluoroethyl)-1-{[(1-methylcyclopropyl)sulfonyl]carbamoyl}cyclopropyl]-14-methoxy-9-methyl-3,6-dioxo-1,1a,3,4,5,6,9,10,18,19,20,21,22,22a-tetradecahydro-8H-7,10-methanocyclopropa[18,19][1,10,3,6]dioxadiazacyclononadecino[11,12-b]quinoxaline-8-carboxamide], `COc1ccc2nc3c(nc2c1)O[C@H]1CN(C(=O)[C@H](C(C)(C)C)NC(=O)O[C@@H]2C[C@@H]4C[C@@H]4[C@H]2CCCCC3)[C@H](C(=O)N[C@]2(C(=O)NS(=O)(=O)C3(C)CC3)C[C@H]2CC(F)F)[C@@H]1C` [Example 58, (1aS,2aR,6S,9S,10S,11R,23aR,23bS)-6-tert-butyl-N-[(1R,2S)-2-(2,2-difluoroethyl)-1-{[(1-methylcyclopropyl)sulfonyl]carbamoyl}cyclopropyl]-15-methoxy-10-methyl-4,7-dioxo-1a,2,2a,4,5,6,7,10,11,19,20,21,22,23,23a,23b-hexadecahydro-1H,9H-8,11-methanocyclopropa[4′,5′]cyclopenta[1′,2′:18,19][1,10,3,6]dioxadiazacyclononade cino[11,12-b]quinoxaline-9-carboxamide] is 2.3-fold lower in Ki: 0.39 nM for the first, 0.17 nM for the second.

`COc1ccc2nc3c(nc2c1)O[C@H]1CN(C(=O)[C@H](C(C)(C)C)NC(=O)O[C@@H]2C[C@@H]4C[C@@H]4[C@H]2CCCCC3)[C@H](C(=O)N[C@]2(C(=O)NS(=O)(=O)C3(C)CC3)C[C@H]2C(F)F)[C@@H]1C` [Example 49, (1aS,2aR,6S,9S,10S,11R,23aR,23bS)-6-tert-butyl-N-[(1R,2R)-2-(difluoromethyl)-1-{[(1-methylcyclopropyl)sulfonyl]carbamoyl}cyclopropyl]-15-methoxy-10-methyl-4,7-dioxo-1a,2,2a,4,5,6,7,10,11,19,20,21,22,23,23a,23b-hexadecahydro-1H,9H-8,11-methanocyclopropa[4′,5′]cyclopenta[1′,2′:18,19][1,10,3,6]dioxadiazacyclononade cino[11,12-b]quinoxaline-9-carboxamide] gave a Ki of 0.07 nM.
